Measurements from BigSolDB 2.1.

Conditions: in water

N[C@@H](CCC(=O)N[C@@H](CS)C(=O)NCC(=O)O)C(=O)O
Conditions	solubility (mole fraction)
278.15 K	0.00427
283.15 K	0.00519
288.15 K	0.00659
293.15 K	0.00792
298.15 K	0.00936
303.15 K	0.0115
308.15 K	0.0139
313.15 K	0.0169
318.15 K	0.0202
